In PubChem BioAssay (NCI):
Values joined by “and” are separate entries in the source; they are usually repeats but may differ in a detail not shown here. Equal entries are not always repeated.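 Assay format: 96-well plates, 48-hour exposure. Abbreviation: GI50, concentration required for 50% inhibition of growth. TGI is the concentration that stops growth completely.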

Columns and labels:
Assay in all cases: inhibition of tumour cell growth, NCI panel, 48 h
[1] = tested on: MALME-3M melanoma
[2] = tested on: UACC-62 melanoma
[3] = tested on: EKVX NSCLC
[4] = tested on: HS 578T breast
[5] = tested on: SF-268 CNS
[6] = tested on: MDA-MB-435
[7] = tested on: SF-295 CNS
[8] = tested on: CAKI-1 renal
[9] = tested on: NCI-H460 lung
[10] = tested on: SK-MEL-5 melanoma

Structure (SMILES)	GI50 [1]	TGI [1]	TGI [2]	GI50 [3]	TGI [3]	GI50 [4]	TGI [4]	TGI [5]	TGI [6]	GI50 [7]	TGI [8]	TGI [9]	GI50 [2]	GI50 [10]	TGI [10]	GI50 [5]	GI50 [6]	TGI [7]	GI50 [8]	GI50 [9]
C#CC1(O)C(COP(=O)(O)OC(COCCCCCCCCCCCCCCCCCC)COP(=O)(O)OCC2OC(n3cc(F)c(=O)[nH]c3=O)CC2O)OC(n2ccc(N)nc2=O)C1O (stereo unspecified)	0.742 µM and 0.202 µM	21.8 µM and 3.51 µM	11.8 µM and 7.46 µM	1.42 µM and 5.06 µM	> 35.2 µM and 71.4 µM	2.12 µM and 1.03 µM	44.8 µM and 17.2 µM	15.9 µM and 15.1 µM	3.08 µM and 5.9 µM	< 0.021 µM and 0.0441 µM	6.72 µM	15.3 µM and 15.1 µM	–	–	–	–	–	–	–	–
Nc1nc(N)c2nc(CNc3ccc(C(=O)NC(CC(=O)O)C(=O)O)cc3)cnc2n1 (stereo unspecified)	> 100 µM	> 100 µM	> 100 µM	1.57 µM	> 100 µM	59.2 µM	> 100 µM	> 100 µM	> 100 µM	0.508 µM	12.4 µM	> 100 µM	3.09 µM	3.33 µM	> 100 µM	0.528 µM	0.465 µM	> 34.6 µM	0.481 µM	0.354 µM
Cc1ccc(C(CC(=O)c2ccccc2)C2C(=O)NC(=O)NC2=O)cc1 (stereo unspecified)	> 100 µM	> 100 µM	> 100 µM	> 100 µM	> 100 µM	> 100 µM	> 100 µM	> 100 µM	> 100 µM	> 100 µM	> 100 µM	> 100 µM	> 100 µM	> 100 µM	> 100 µM	> 100 µM	> 100 µM	> 100 µM	> 100 µM	> 100 µM
CCC1CN2C(=N1)c1ccccc1-c1cc(Cl)ccc12 (stereo unspecified)	2.8 µM	8.15 µM	5.17 µM	4.74 µM	26.6 µM	6.58 µM	34.5 µM	11.6 µM	16.2 µM	3.91 µM	46.7 µM	10.5 µM	1.76 µM	2.03 µM	4.69 µM	2.96 µM	4.39 µM	31.3 µM	4.32 µM	2.15 µM
O=c1ccn(C2CC(O)C(CO)O2)c(=O)[nH]1 (stereo unspecified)	> 5000 µM	> 5000 µM	> 5000 µM	> 5000 µM	> 5000 µM	> 5000 µM	> 5000 µM	> 5000 µM	> 5000 µM	> 5000 µM	> 5000 µM	> 5000 µM	> 5000 µM	> 5000 µM	> 5000 µM	> 5000 µM	> 5000 µM	> 5000 µM	> 5000 µM	> 5000 µM
CCOC(=O)c1c2c(n(Cc3ccc(Cl)cc3Cl)c1C)-c1nc[nH]c1C(=O)C2=O	11.6 µM	27.4 µM	–	13 µM	27.4 µM	23.1 µM	74.5 µM	20.4 µM	30.1 µM	20.5 µM	31.8 µM	15.9 µM	–	13 µM	25.7 µM	7.89 µM	13.5 µM	92.2 µM	13.4 µM	4.79 µM
COc1cccc(-n2nc(C)c3c(N/N=C(\C)c4ccncc4)ncnc32)c1	10.3 µM	> 25 µM	> 25 µM	> 25 µM	> 25 µM	> 25 µM	> 25 µM	> 25 µM	> 25 µM	> 25 µM	> 25 µM	> 25 µM	> 25 µM	3.02 µM	> 25 µM	> 25 µM	> 25 µM	> 25 µM	> 25 µM	> 25 µM
O=C(Cn1c(=O)c(-c2ccccc2)nc2ccccc21)Nc1ccc(F)cc1	43 µM	> 100 µM	> 100 µM	87.1 µM	> 100 µM	29.9 µM	88.8 µM	> 100 µM	> 100 µM	> 100 µM	> 100 µM	> 100 µM	67.5 µM	7.38 µM	> 100 µM	> 100 µM	> 100 µM	> 100 µM	> 100 µM	> 100 µM
c1cc2n(n1)CCN2	–	9920 µM	6540 µM	–	6630 µM	–	> 5490 µM	8200 µM	> 10000 µM	–	4680 µM	6710 µM	–	–	> 7740 µM	–	–	4350 µM	–	–
Cc1cc(O)c(C2=NN(c3ccc(S(N)(=O)=O)cc3)C(c3ccccc3Cl)C2)cc1Cl (stereo unspecified)	2.62 µM	6.46 µM	14.4 µM	1.95 µM	4.6 µM	3.28 µM	> 100 µM	–	3.92 µM	1.59 µM	3.99 µM	4.21 µM	3.71 µM	3.85 µM	12.3 µM	–	1.85 µM	3.18 µM	1.78 µM	2.16 µM
COC1=CC(c2ccc[nH]2)=N/C1=C\c1[nH]c(C)c(C(=O)CCCCC(=O)NC(C)(C)C)c1C	1.47 µM	3.12 µM	10.8 µM	1.96 µM	13 µM	1.75 µM	4.26 µM	4.32 µM	3.47 µM	2.17 µM	4.43 µM	4.52 µM	3.59 µM	1.97 µM	5.24 µM	1.6 µM	1.75 µM	6.66 µM	1.39 µM	1.87 µM
COc1cccc(-c2nn(-c3ccccc3)cc2-c2ccnc(NCCCNC(=O)Nc3ccc(Cl)c(Cl)c3)c2)c1	1.86 µM	3.9 µM	4 µM	3.51 µM	17.5 µM	2.35 µM	7.53 µM	13.9 µM	4.82 µM	2.38 µM	15 µM	14.7 µM	1.91 µM	1.75 µM	3.32 µM	3.32 µM	2.01 µM	6.43 µM	3.16 µM	3.76 µM
CC1OC(OC2C[C@](O)(C(=O)CF)Cc3c(O)c4c(c(O)c32)C(=O)c2ccccc2C4=O)CC(N)C1O (stereo partly specified)	–	0.191 µM	0.117 µM	–	4.64 µM	–	0.117 µM	1.37 µM	0.321 µM	–	0.0763 µM	0.031 µM	–	–	0.0657 µM	–	–	4.74 µM	–	–
COc1ccc(/C=C/C(=O)c2ccc(O)c(CN3CCN(c4cc5c(cc4F)c(=O)c(C(=O)O)cn5C4CC4)CC3)c2)cc1	1.59 µM	16.4 µM	> 100 µM	8.35 µM	> 100 µM	0.714 µM	> 100 µM	> 100 µM	> 100 µM	2.1 µM	> 100 µM	> 100 µM	1.32 µM	1.57 µM	> 100 µM	2.32 µM	2.17 µM	> 100 µM	2.35 µM	6.08 µM
CCCCC[C@H]1C/C=C2/C(=O)C=C[C@@H]2C/C=C\CCCC(=O)O[C@@H](CCCCC)C/C=C2/C(=O)C=C[C@@H]2C/C=C\CCCC(=O)O1	0.338 µM	0.885 µM	0.783 µM	0.373 µM	1.03 µM	1.28 µM	10.1 µM	1.75 µM	0.412 µM	0.506 µM	–	1.48 µM	0.253 µM	0.414 µM	0.791 µM	0.442 µM	0.0959 µM	1.29 µM	–	0.606 µM
NC(=O)c1ccc(I)c(N=O)c1	34 µM	> 100 µM	> 100 µM	81.1 µM	> 100 µM	38.5 µM	> 100 µM	> 100 µM	89.5 µM	> 100 µM	45.4 µM	> 100 µM	40.5 µM	34.2 µM	> 100 µM	62.1 µM	29.6 µM	> 100 µM	20 µM	62.6 µM
C[C@]12CCc3sc(NCCc4ccccc4)nc3C1=CC[C@@H]1[C@@H]2CC[C@]2(C)C(=O)CC[C@@H]12	2.18 µM	6.82 µM	10.6 µM	90.1 µM	> 100 µM	2.85 µM	> 100 µM	> 100 µM	> 100 µM	18.9 µM	11.1 µM	> 100 µM	2.67 µM	4.57 µM	52.7 µM	4.62 µM	3.01 µM	> 100 µM	3.13 µM	4.47 µM
CNC(=O)c1cccc2cc(Oc3ccnc4cc(OCC5(N)CC5)c(OC)cc34)ccc12	9.07 µM	26.8 µM	15.9 µM	14.6 µM	34.5 µM	5.5 µM	30.2 µM	24.2 µM	12 µM	10.1 µM	25 µM	18.1 µM	4.03 µM	13.4 µM	26.7 µM	6.01 µM	3.09 µM	25 µM	11.9 µM	5.12 µM
COc1cc2ccccc2oc1=O	–	> 100 µM	> 100 µM	–	> 100 µM	–	> 100 µM	> 100 µM	> 100 µM	–	> 100 µM	> 100 µM	–	–	> 100 µM	–	–	> 100 µM	–	–
O=C(N/C(=C/c1ccc(Cl)cc1Cl)c1nc2ccccc2s1)c1ccccc1	–	31.1 µM	30.2 µM	–	41 µM	–	44.3 µM	34 µM	30.2 µM	–	30 µM	52.2 µM	–	–	26.4 µM	–	–	26.5 µM	–	–
CNCCCn1c2c(c3ccc([N+](=O)[O-])cc3c1=O)C(=O)c1cc(OC)cnc1-2	0.175 µM	0.923 µM	0.122 µM	0.273 µM	5.83 µM	1.17 µM	5.27 µM	2.17 µM	1.17 µM	0.0319 µM	0.342 µM	0.185 µM	0.02 µM	0.107 µM	0.279 µM	0.0685 µM	0.15 µM	0.193 µM	0.0346 µM	0.0194 µM
COC(=O)c1ccccc1OCc1cc(=O)oc2ccc(C)cc12	–	> 100 µM	> 66.6 µM	–	> 100 µM	–	> 100 µM	> 82.7 µM	> 100 µM	–	> 100 µM	> 100 µM	–	–	> 100 µM	–	–	> 81.2 µM	–	–
O=C(O)C1OC1(c1cccc(Cl)c1)c1ccccc1Cl (stereo unspecified)	–	49.9 µM	35 µM	–	68.4 µM	–	52.4 µM	47.8 µM	> 100 µM	–	81.8 µM	> 100 µM	–	–	35.4 µM	–	–	76.5 µM	–	–
CC1(N)CCN(c2cccnc2NC(=O)c2nc(-c3ncccc3C(F)(F)F)cnc2N)CC1	17.6 µM	36.4 µM	> 100 µM	34.9 µM	> 100 µM	38.5 µM	> 100 µM	> 100 µM	> 100 µM	99.3 µM	> 100 µM	> 100 µM	61.2 µM	18.3 µM	33 µM	31.5 µM	41.6 µM	> 100 µM	17.8 µM	41.1 µM
COc1ccc2c(c1)nnn1c3ncccc3c(N=O)c21	0.769 µM and 1.5 µM	5.77 µM and 5.63 µM	7.81 µM and 13.9 µM	3.38 µM and 3.82 µM	25.3 µM and 61.8 µM	1.17 µM and 11.5 µM	–	3.56 µM and 8.25 µM	9.7 µM and 12.4 µM	4.69 µM and 6.95 µM	0.359 µM and 1.59 µM	8.12 µM and 7.8 µM	0.853 µM and 2.56 µM	5.01 µM and 11.7 µM	11.1 µM and 24.1 µM	0.465 µM and 1.73 µM	1.94 µM and 2.05 µM	15.3 µM and 32 µM	0.0892 µM and 0.202 µM	1.67 µM and 2.19 µM
Cc1ccc(-c2nc(C#N)c(S(=O)(=O)n3nc(C)cc3N)o2)cc1	1.82 µM	3.54 µM	19.8 µM	21.8 µM	55 µM	21.3 µM	58.1 µM	36.2 µM	22.7 µM	15.8 µM	14.2 µM	41.5 µM	6.32 µM	–	–	16.4 µM	10.5 µM	30.5 µM	4.3 µM	19.5 µM
COc1cccc2c1C(=O)c1c(O)c3c(c(O)c1C2=O)CC(O)(C(O)CO)CC3OC1CC(N2CCOCC2)C(O)C(C)O1 (stereo unspecified)	0.0132 µM	0.00768 µM and 0.0309 µM	–	0.0304 µM	0.0334 µM and 0.146 µM	–	0.214 µM	0.0166 µM and 0.158 µM	0.0568 µM	0.0243 µM	0.0335 µM	–	–	0.017 µM	0.00553 µM and 0.0332 µM	0.0265 µM	–	0.0718 µM and 0.106 µM	–	–
